Test results from article PMC7531004, “Discovery of gramicidin A analogues with altered activities by multidimensional screening of a one-bead-one-compound library” (Nature Communications, 2020).
Where a SMILES comes first, the peptide text is derived from it. [ ]: non-standard residue; d: D form. The star is where a group is joined. NHCH2CH2OH = OCCN*; For = O=C*

Legend:
rabbit red blood cells = settings: red cells of rabbit, 2 h
Procedure: Second, we examined the cytotoxicity toward mammalian cancer cells and hemolytic activity of 1. […] Hemolytic activity was evaluated by monitoring hemoglobin leakage from rabbit red blood cells as a consequence of membrane damage. The concentration of 1 required to cause 10% hemoglobin leakage (HC10) was 160 nM. Thus, the P388 cytotoxicity of 1 was 28-fold more sensitive than its hemolytic activity.
Hemolysis assay of purified peptides. […]
with DMSO to various concentrations as 3-fold serial dilution. A 50% suspension of rabbit blood in Alsever's solution was obtained from Nippon Bio -Supp. Center . The blood suspension (250 µL) w as diluted with phosphate buffered saline (no calcium, no magnesium, 1.00 mL). The resultant suspension was centrifuged at 1000 × g for 3 min at 8 °C. The supernatant was discarded, and the collected cells were resuspended in phosphate buffered saline (no calcium, no magnesium, 1.00 mL). The same procedure was repeated (× 3). The resultant suspension (100 µL) was diluted with phosphate buffered saline (no calcium, no magnesium, 4.90 mL) to give 0.2% red blood cells suspension. The 0.2% red blood cells suspension (95.0 µL) and each dilution series of the purified peptide in DMSO (5 .0 µL) were mixed in 2 mL microtube.
supernatant was transferred to a 96-well plate (TR5003, TrueLine). The absorbance of each well at 415 nm was measured using a Thermo Scientific Multiskan GO (Thermo Fisher Scientific). The mixture of Triton X-100/H2O (5/95, 2.0 µL), DMSO (5.0 µL), and the 0.2% red blood cells suspension (95.0 µL) was used to determine 100% hemolysis. The mixture of DMSO (5.0 µL) and the 0.2% red blood cells suspension (95.0 µL) was used to determine 0% hemolysis. The hemolytic activities of tested peptides ( I) were normalized against 100% hemolysis by Triton X -100 (Imax) and 0% hemolysis by DMSO (I0) according to Supplementary Equation 3, where Ix is the UV absorbance.
I = 100 × (Ix – I0) / (Imax – I0) (3)
The hemolytic activities of the purified peptides were evaluated as the concentrations causing 10% hemolysis (HC10, nM) by means of three replicates. Sigmoidal curve fittings were performed on GraphPad Prism (GraphPad software, Supplementary Figure 7).

[1] = system: Streptococcus pyogenes SSI-9; assay: Antibacterial activity assay of bead-derived peptides (three concentrations); assay type: cell-based; set-up: key: +++: inhibition by the 640-fold diluted peptide solution; ++: inhibition by the 160-fold diluted solution; +: inhibition by the 40-fold diluted solution; -: no inhibition; settings: S. pyogenes
Procedure, shortened: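 First, each peptide stock was diluted 4- and 16-fold in DMSO; next, the three solutions were mixed with S. pyogenes SSI-9 suspension (2 × 10^5 CFU) in cation-adjusted Mueller Hinton Broth plus 5% laked horse blood; finally, plates stood 18 h at 37 °C before checking for grown-cell precipitation.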

[2] = system: P388 mouse leukemia cell line; settings: for IC50: 2 h
[3] = H+/Na+ transport assay of bead-derived peptides (one-point); assay type: biochemical; set-up: key: relative activity; mean of two control wells = 1.00; settings: bead-derived peptide solution, EYPC/EYPG LUVs;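 note: relative to parent gramicidin A activity set to 1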
Procedure, shortened: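 H+/Na+ transport is monitored through pyranine fluorescence in freshly extruded LUVs after a 30-min room-temperature vortex with each library peptide at a single concentration. Signals are normalized to detergent (Triton X-100) and untreated controls.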

CC(C)C[C@@H](NC(=O)[C@H](Cc1c[nH]c2ccccc12)NC(=O)[C@@H](CC(C)C)NC(=O)[C@H](Cc1c[nH]c2ccccc12)NC(=O)[C@@H](CC(C)C)NC(=O)[C@H](Cc1c[nH]c2ccccc12)NC(=O)[C@H](NC(=O)[C@@H](NC(=O)[C@H](NC(=O)[C@H](C)NC(=O)[C@H](NC(=O)[C@H](C)NC(=O)CNC(=O)[C@@H](NC=O)C(C)C)C(C)C)C(C)C)C(C)C)C(C)C)C(=O)N[C@@H](Cc1c[nH]c2ccccc12)C(=O)NCCO [A1] (For-VGA[dV]A[dV]V[dV]W[dL]W[dL]W[dL]W-NHCH2CH2OH)
Hemolytic activity HC10 (concentration causing 10% hemolysis) (rabbit red blood cells): 240 nM
antibacterial activity in the library screening [1]: +++

CC(C)C[C@@H](NC(=O)[C@H](Cc1c[nH]c2ccccc12)NC(=O)[C@H](NC(=O)[C@@H](NC(=O)[C@H](NC(=O)[C@H](C)NC(=O)[C@H](NC(=O)[C@H](C)NC(=O)CNC(=O)[C@@H](NC=O)C(C)C)C(C)C)C(C)C)C(C)C)C(C)C)C(=O)N[C@@H](Cc1c[nH]c2ccccc12)C(=O)N[C@@H](C(=O)N[C@@H](Cc1c[nH]c2ccccc12)C(=O)N[C@@H](C(=O)N[C@@H](Cc1c[nH]c2ccccc12)C(=O)NCCO)C(C)C)C(C)C [B01] (For-VGA[dV]A[dV]V[dV]W[dL]W[dV]W[dV]W-NHCH2CH2OH)
Hemolytic activity HC10 (concentration causing 10% hemolysis) (rabbit red blood cells): 1100 nM

CC(C)C[C@@H](NC(=O)[C@H](C)NC(=O)[C@H](NC(=O)[C@H](C)NC(=O)CNC(=O)[C@@H](NC=O)C(C)C)C(C)C)C(=O)N[C@H](C(=O)N[C@@H](C(=O)N[C@@H](Cc1c[nH]c2ccccc12)C(=O)N[C@@H](C(=O)N[C@@H](Cc1c[nH]c2ccccc12)C(=O)N[C@H](CC(C)C)C(=O)N[C@@H](Cc1c[nH]c2ccccc12)C(=O)N[C@H](CC(C)C)C(=O)N[C@@H](Cc1c[nH]c2ccccc12)C(=O)NCCO)C(C)C)C(C)C)C(C)C [B02] (For-VGA[dV]A[dL]V[dV]W[dV]W[dL]W[dL]W-NHCH2CH2OH)
Hemolytic activity HC10 (concentration causing 10% hemolysis) (rabbit red blood cells): 1400 nM

CC(C)C[C@@H](NC(=O)[C@H](C)NC(=O)CNC(=O)[C@@H](NC=O)C(C)C)C(=O)N[C@@H](C)C(=O)N[C@@H](C(=O)N[C@H](C(=O)N[C@@H](C(=O)N[C@@H](Cc1c[nH]c2ccccc12)C(=O)N[C@@H](C(=O)N[C@@H](Cc1c[nH]c2ccccc12)C(=O)N[C@@H](C(=O)N[C@@H](Cc1c[nH]c2ccccc12)C(=O)N[C@@H](C(=O)N[C@@H](Cc1c[nH]c2ccccc12)C(=O)NCCO)C(C)C)C(C)C)C(C)C)C(C)C)C(C)C)C(C)C [B03] (For-VGA[dL]A[dV]V[dV]W[dV]W[dV]W[dV]W-NHCH2CH2OH)
Hemolytic activity HC10 (concentration causing 10% hemolysis) (rabbit red blood cells): 2000 nM

CC(C)C[C@@H](NC(=O)[C@H](C)NC(=O)CNC(=O)[C@@H](NC=O)C(C)C)C(=O)N[C@@H](C)C(=O)N[C@@H](C(=O)N[C@H](C(=O)N[C@@H](C(=O)N[C@@H](Cc1c[nH]c2ccccc12)C(=O)N[C@@H](C(=O)N[C@@H](Cc1c[nH]c2ccccc12)C(=O)N[C@H](CC(C)C)C(=O)N[C@@H](Cc1c[nH]c2ccccc12)C(=O)N[C@@H](C(=O)N[C@@H](Cc1c[nH]c2ccccc12)C(=O)NCCO)C(C)C)C(C)C)C(C)C)C(C)C)C(C)C [B04] (For-VGA[dL]A[dV]V[dV]W[dV]W[dL]W[dV]W-NHCH2CH2OH)
Hemolytic activity HC10 (concentration causing 10% hemolysis) (rabbit red blood cells): 1100 nM

CC(C)C[C@@H](NC(=O)[C@H](C)NC(=O)CNC(=O)[C@@H](NC=O)C(C)C)C(=O)N[C@@H](C)C(=O)N[C@H](CC(C)C)C(=O)N[C@H](C(=O)N[C@H](CC(C)C)C(=O)N[C@@H](Cc1c[nH]c2ccccc12)C(=O)N[C@H](CC(C)C)C(=O)N[C@@H](Cc1c[nH]c2ccccc12)C(=O)N[C@@H](C(=O)N[C@@H](Cc1c[nH]c2ccccc12)C(=O)N[C@@H](C(=O)N[C@@H](Cc1c[nH]c2ccccc12)C(=O)NCCO)C(C)C)[C@H](C)O)C(C)C [B11] (For-VGA[dL]A[dL]V[dL]W[dL]W[dT]W[dV]W-NHCH2CH2OH)
Hemolytic activity HC10 (concentration causing 10% hemolysis) (rabbit red blood cells): 910 nM

CC(C)C[C@@H](NC(=O)[C@H](C)NC(=O)CNC(=O)[C@@H](NC=O)C(C)C)C(=O)N[C@@H](C)C(=O)N[C@@H](C(=O)N[C@H](C(=O)N[C@@H](C(=O)N[C@@H](Cc1c[nH]c2ccccc12)C(=O)N[C@H](CC(C)C)C(=O)N[C@@H](Cc1c[nH]c2ccccc12)C(=O)N[C@H](CC(C)C)C(=O)N[C@@H](Cc1c[nH]c2ccccc12)C(=O)N[C@@H](C(=O)N[C@@H](Cc1c[nH]c2ccccc12)C(=O)NCCO)C(C)C)[C@H](C)O)C(C)C)C(C)C [B12] (For-VGA[dL]A[dV]V[dT]W[dL]W[dL]W[dV]W-NHCH2CH2OH)
weaker cytotoxicity than 1 [2]: 70 fold
Hemolytic activity HC10 (concentration causing 10% hemolysis) (rabbit red blood cells): > 3000 nM

CC(C)C[C@@H](NC(=O)[C@H](C)NC(=O)CNC(=O)[C@@H](NC=O)C(C)C)C(=O)N[C@@H](C)C(=O)N[C@@H](C(=O)N[C@H](C(=O)N[C@@H](C(=O)N[C@@H](Cc1c[nH]c2ccccc12)C(=O)N[C@H](CC(C)C)C(=O)N[C@@H](Cc1c[nH]c2ccccc12)C(=O)N[C@H](CC(C)C)C(=O)N[C@@H](Cc1c[nH]c2ccccc12)C(=O)N[C@H](CC(C)C)C(=O)N[C@@H](Cc1c[nH]c2ccccc12)C(=O)NCCO)[C@H](C)O)C(C)C)C(C)C [B13] (For-VGA[dL]A[dV]V[dT]W[dL]W[dL]W[dL]W-NHCH2CH2OH)
IC50 [2]: > 1000 nM
Hemolytic activity HC10 (concentration causing 10% hemolysis) (rabbit red blood cells): > 3000 nM

CC(C)C[C@@H](NC(=O)[C@H](C)NC(=O)[C@H](NC(=O)[C@H](C)NC(=O)CNC(=O)[C@@H](NC=O)C(C)C)[C@H](C)O)C(=O)N[C@H](C(=O)N[C@H](CC(C)C)C(=O)N[C@@H](Cc1c[nH]c2ccccc12)C(=O)N[C@@H](C(=O)N[C@@H](Cc1c[nH]c2ccccc12)C(=O)N[C@H](CC(C)C)C(=O)N[C@@H](Cc1c[nH]c2ccccc12)C(=O)N[C@@H](C(=O)N[C@@H](Cc1c[nH]c2ccccc12)C(=O)NCCO)C(C)C)[C@H](C)O)C(C)C [B21] (For-VGA[dT]A[dL]V[dL]W[dT]W[dL]W[dV]W-NHCH2CH2OH)
IC50 [2]: > 1000 nM
Hemolytic activity HC10 (concentration causing 10% hemolysis) (rabbit red blood cells): > 3000 nM
antibacterial activity in the library screening [1]: Neither of these peptides exhibited growth inhibition activity

CNC(=O)C[C@@H](NC(=O)[C@@H](NC(=O)[C@@H](CC(C)C)NC(=O)[C@H](C)NC(=O)[C@@H](CC(C)C)NC(=O)[C@H](C)NC(=O)CNC(=O)[C@@H](NC=O)C(C)C)C(C)C)C(=O)N[C@@H](Cc1c[nH]c2ccccc12)C(=O)N[C@H](CC(C)C)C(=O)N[C@@H](Cc1c[nH]c2ccccc12)C(=O)N[C@H](CC(C)C)C(=O)N[C@@H](Cc1c[nH]c2ccccc12)C(=O)N[C@@H](C(=O)N[C@@H](Cc1c[nH]c2ccccc12)C(=O)NCCO)[C@H](C)O [B22] (For-VGA[dL]A[dL]V[dD](NHMe)W[dL]W[dL]W[dT]W-NHCH2CH2OH)
IC50 [2]: > 1000 nM
Hemolytic activity HC10 (concentration causing 10% hemolysis) (rabbit red blood cells): > 3000 nM
antibacterial activity in the library screening [1]: Neither of these peptides exhibited growth inhibition activity

CC(C)C[C@@H](NC(=O)[C@H](C)NC(=O)CNC(=O)[C@@H](NC=O)C(C)C)C(=O)N[C@@H](C)C(=O)N[C@@H](C(=O)N[C@H](C(=O)N[C@@H](C(=O)N[C@@H](Cc1c[nH]c2ccccc12)C(=O)N[C@H](CC(C)C)C(=O)N[C@@H](Cc1c[nH]c2ccccc12)C(=O)N[C@H](CC(C)C)C(=O)N[C@@H](Cc1c[nH]c2ccccc12)C(=O)N[C@H](CC(C)C)C(=O)N[C@@H](Cc1c[nH]c2ccccc12)C(=O)NCCO)C(C)C)C(C)C)C(C)C [compound 1, Gramicidin A] (For-VGA[dL]A[dV]V[dV]W[dL]W[dL]W[dL]W-NHCH2CH2OH)
IC99.6 value (threshold concentration of one-point cytotoxicity assay) [2]: 30 nM
P388 cytotoxicity more sensitive than hemolytic activity [2]: 28 fold
Hemolytic activity HC10 (concentration causing 10% hemolysis) (rabbit red blood cells): 160 nM
H+/Na+ transport activity normalized against the value of 1 (1.00) [3]: 1.07
antibacterial activity in the library screening [1]: ++ or +
antibacterial activity ([1]; bead-derived peptide solution, three concentrations): -
